The record followed here is article PMC5923390, “Further New Diterpenoids as PTP1B Inhibitors from the Xisha Soft Coral Sinularia polydactyla” (Marine Drugs, 2018).

In the assay the target is T1, recombinant PTP1B catalytic domain (Homo sapiens, UniProt P18031).
T1 construct: Recombinant PTP1B catalytic domain was expressed and purified according to a previous report; made in house
T1 sequence (P18031 3-277 limits assumed): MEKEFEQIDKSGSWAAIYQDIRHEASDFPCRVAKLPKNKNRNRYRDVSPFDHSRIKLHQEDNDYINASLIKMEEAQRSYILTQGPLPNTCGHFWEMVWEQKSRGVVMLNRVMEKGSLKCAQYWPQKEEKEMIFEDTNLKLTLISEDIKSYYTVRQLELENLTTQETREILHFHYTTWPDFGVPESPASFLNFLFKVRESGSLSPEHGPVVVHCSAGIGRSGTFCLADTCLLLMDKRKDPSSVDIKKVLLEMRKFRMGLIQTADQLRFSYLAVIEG
As to the kind of experiment: PTP1B inhibitory activity assay (pNPP hydrolysis). The assay is classed as biochemical. The settings on record: for PTP1B inhibitory activity (in words): in vitro, pNPP hydrolysis; for IC50: pNPP 2 mmol/L, 30 nmol/L recombinant PTP1B, MOPs pH 6.5, 30 °C, absorbance 405 nm, read-out: IC50 against PTP1B. The protocol:
Recombinant PTP1B catalytic domain was expressed and purified according to a previous report. The enzymatic activities of the PTP1B catalytic domain were determined at 30 °C by monitoring the hydrolysis of pNPP. The dephosphorylation of pNPP generated product pNP, which was monitored at an absorbance of 405 nm by the EnVision multi label plate reader (Perkin Elmer Life Sciences, Boston, MA). In an atypical 100 µL assay mixture containing 50 mmol/L 3-[N-morpholino] propanesulfonic acid (MOPs), pH 6.5, 2 mmol/L pNPP, and 30 nmol/L recombinant PTP1B, activities were continuously monitored and the initial rate of hydrolysis was determined using the early linear region of the enzymatic reaction kinetic curve. The IC50 was calculated with Prism 4 software (Graphpad, San Diego, CA).

Several values for one entry are separate records, joined by “and”; a condition that tells them apart may be missing. Identical values can stand only once.

Consider `C=C[C@@]1(C)CC[C@H](/C(C)=C/C=C/C(C)(C)OC)C[C@@H]1C(=C)C` [Compound 5, lobatetraene], for which the “PTP1B inhibitory activity (in words)” value was “inactive”.
Turning to `C=C[C@@]1(C)CC[C@H](/C(C)=C/C=C/C(C)(C)O)C[C@@H]1C(=C)C` [Compound 6, fuscol], the “PTP1B inhibitory activity (in words)” value was “inactive”.
Regarding `CC1=CC[C@@H](O)[C@@]2(C)CC[C@H](/C(C)=C/C=C/C(C)(C)O)C[C@H]12` [Compound 7], the concentration for half-maximal inhibition (IC50) is 75.5 µM and 72.4 µM.
For the molecule `CC(=CC=CC(C)(C)O)C1CCC2(C)CCC=C(C)C2C1` (centres unmarked) [Compound 8, sinupol], the “PTP1B inhibitory activity (in words)” value is listed as “promising inhibitory activity” and the concentration for half-maximal inhibition (IC50) is 63.9 µM.
Consider `C=C1CCC=C(C)C(OC(C)=O)C(OC(C)=O)C(C(C)C)=CC2C(C)=CCC12` (centres unmarked) [Compound 9, sinulacetate], for which the “PTP1B inhibitory activity (in words)” value was “promising inhibitory activity” and the 50% inhibitory concentration (IC50) was determined as 51.8 µM.
For `CC1=CC=C(C(C)C)C(O)C(O)C(C)=CCCC(C)=CCC1` (centres unmarked) [Compound 10, sarcophytol B], the “PTP1B inhibitory activity (in words)” value was “inactive”.
